Drawing on patent publication US5395850A, “6,7-epoxy paclitaxels” (Bristol-Myers Squibb Company, priority 1994, dated 1995), this text covers IC50 for 5 molecules.

The test system of test [1] is human colon carcinoma cells HCT-116/VM46. As to the kind of experiment: XTT in vitro cytotoxicity assay, HCT-116/VM46 multi-drug resistant human colon carcinoma cells. The class given is cell-based. The method, then:
(§1) The HCT-116/VM46 cells are cells that have been previously selected for teniposide resistance and express the multi-drug resistance phenotype, including resistance to paclitaxel. Cytotoxicity was assessed in HCT-116 human colon carcinoma cells by XTT (2,3-bis(2-methoxy-4-nitro-5-sulfphenyl)-5-[(phenylamino)carbonyl]2H-tetrazolium hydroxide) assay as reported in D. A. Scudiero, et al., "Evaluation of soluble tetrazolium/formazan assay for cell growth and drug sensitivity in culture using human and other tumor cell lines," Cancer Res. 48:4827-4833, 1988. Cells were plated at 4000 cells/well in 96 well microtiter plates and 24 hours later drugs were added and serial diluted. The cells were incubated at 37° C. for 72 hours at which time the tetrazolium dye, XTT, was added. A dehydrogenase enzyme in live cells reduces the XTT to a form that absorbs light at 450 nm which can be quantitated spectrophotometrically. The greater the absorbance, the greater the number of live cells. The results are expressed as an IC50, which is the drug concentration required to inhibit cell proliferation (i.e., absorbance at 450 nm) to 50% of that of untreated control cells.
A general note: Tetrazolium assays rely on reduction of a dye to a coloured formazan, in cell work by metabolically active cells.

Test [2] has as its system human colon carcinoma cells HCT-116. In words: XTT in vitro cytotoxicity assay, HCT-116 human colon carcinoma cells. Type of test: cell-based. The method, then: as §1
Where [3] appears, read: HCT-116/VM46, XTT, 72 hours at 37° C., teniposide-selected cells, multi-drug resistance phenotype incl. resistance to paclitaxel, read-out: IC50 HCT116/VM46.
Setting [4] is: HCT-116, XTT, 72 hours at 37° C., inhibition of cell proliferation to 50% of untreated control, read-out: IC50 HCT116.
The mark [5] stands for this setting: HCT-116/VM46, 72 h, read-out: IC50 HCT116/VM46 (nM).
Setting [6] is: HCT-116, 72 h, read-out: IC50 HCT116 (nM).

Like-named read-outs stand apart in the source and are kept apart here.

`CC(=O)O[C@H]1C(=O)[C@]2(C)[C@@H]3O[C@@H]3[C@H]3OC[C@@]3(OC(C)=O)[C@H]2[C@H](OC(=O)c2ccccc2)[C@]2(O)C[C@H](OC(=O)[C@H](O)[C@@H](NC(=O)OC(C)(C)C)c3ccco3)C(C)=C1C2(C)C` [Ib, 3'-N-Debenzoyl-N-t-butoxycarbonyl-3'-desphenyl-3'-(2-furyl)-6,7-α-epoxypaclitaxel]: the results for the IC50 in test [1] (setting [3]) and in test [2] (setting [4]) were 2.8 to 13.9 nM and 1.3 to 3 nM, respectively.

As to `CC(=O)O[C@H]1C(=O)[C@]2(C)[C@@H]3O[C@@H]3[C@H]3OC[C@@]3(OC(C)=O)[C@H]2[C@H](OC(=O)c2ccccc2)[C@]2(O)C[C@H](OC(=O)[C@H](O)[C@H](C=C(C)C)NC(=O)OC(C)(C)C)C(C)=C1C2(C)C` [Id, 3'-N-Debenzoyl-N-t-butoxycarbonyl-3'-desphenyl-3'-isobutenyl-6,7-α-epoxypaclitaxel], the IC50 stood at 3.3 nM in test [1] (setting [5]) and 1.3 nM in test [2] (setting [6]).

With `CC(=O)O[C@H]1C(=O)[C@]2(C)[C@@H]3O[C@@H]3[C@H]3OC[C@@]3(OC(C)=O)[C@H]2[C@H](OC(=O)c2ccccc2)[C@]2(O)C[C@H](OC(=O)[C@H](O)[C@@H](NC(=O)c3ccccc3)c3ccccc3)C(C)=C1C2(C)C` [Ia, 6,7-α-Epoxypaclitaxel], the IC50 in test [1] (setting [5]) was determined as 30.5 nM; in test [2] (setting [6]), 1.2 nM.

In the case of `CC(=O)O[C@H]1C(=O)[C@@]2(C)[C@H]([C@H](OC(=O)c3ccccc3)[C@]3(O)C[C@H](OC(=O)[C@H](O)[C@@H](NC(=O)c4ccccc4)c4ccccc4)C(C)=C1C3(C)C)[C@]1(OC(C)=O)CO[C@@H]1C[C@@H]2O` [paclitaxel], the figures for the IC50 in test [1] (setting [3]) and in test [2] (setting [4]) were 244 to 403 nM and 1.3 to 3.5 nM, respectively.

For `CC(=O)O[C@H]1C(=O)[C@]2(C)[C@@H]3O[C@@H]3[C@H]3OC[C@@]3(OC(C)=O)[C@H]2[C@H](OC(=O)c2ccccc2)[C@]2(O)C[C@H](OC(=O)[C@H](O)[C@@H](NC(=O)c3ccccc3)c3ccco3)C(C)=C1C2(C)C` [Ic, 3'-Desphenyl-3'-(2-furyl)-6,7-α-epoxypaclitaxel], the values for the IC50 in test [1] (setting [5]) and in test [2] (setting [6]) were 12.3 nM and 0.6 nM, respectively.
